Assay results published in ChEMBL document CHEMBL1208787 (Bioorg Med Chem Lett, 2010).

What was measured:
Rattus norvegicus [1] = experiment: Antiinflammatory activity in rat assessed as inhibition of carrageenan-induced paw edema administered orally at dose equivalent to 70 mg/kg ibuprofen after 4 hrs; type: functional; settings: route oral
Mus musculus = experiment: Analgesic activity in po dosed mouse assessed as decrease in tail flick tendency after 4 hrs by tail flick test; type: functional
Rattus norvegicus [2] = experiment: Gastrointestinal toxicity in rat assessed as ulcerogenic index administered orally at dose equivalent to 210 mg/kg ibuprofen; type: organism-based; design: dose 210 mg/kg, route oral; settings: in vivo, po
[3] = tested on: Stomach (Rattus norvegicus); experiment: Gastrointestinal toxicity in rat gastric mucosa assessed as ulcerogenic activity-related malonaldehyde level per 100 mg of tissue administered orally at dose equivalent to 210 mg/kg ibuprofen (RVb = 3.26 nmol); settings: in vivo, po
Rattus norvegicus [4] = experiment: Hepatotoxicity in po dosed rat assessed as effect on serum SGOT level (reference value: 143.71 +/- 1.1 U/mL); type: toxicity, organism-based; settings: in vivo
Rattus norvegicus [5] = experiment: Hepatotoxicity in po dosed rat assessed as effect on serum SGPT level (reference value: 32.46 +/- 0.76 U/mL); type: toxicity, organism-based; settings: in vivo
Rattus norvegicus [6] = experiment: Hepatotoxicity in po dosed rat assessed as effect on serum alkaline phosphatase level (reference value: 12.17 +/- 0.16 U/mL); type: toxicity, organism-based; settings: in vivo
Rattus norvegicus [7] = experiment: Hepatotoxicity in po dosed rat assessed as effect on total serum protein level (reference value: 1.72+/- 0.02 g/dl); type: toxicity, organism-based; settings: in vivo
Rattus norvegicus [8] = experiment: Hepatotoxicity in po dosed rat assessed as effect on total albumin level (reference value: 1.63 +/- 0.02 g/dl); type: toxicity, organism-based; settings: in vivo
Liver [9] = experiment: Hepatotoxicity in po dosed rat liver assessed as effect on hepatocyte morphological changes by histopathological analysis; type: toxicity, organism-based; settings: hepatocytes
Rattus norvegicus [10] = experiment: Antiinflammatory activity in rat assessed as inhibition of carrageenan-induced paw edema at 70 mg/kg, po after 4 hrs; type: functional
Rattus norvegicus [11] = experiment: Gastrointestinal toxicity in rat assessed as ulcerogenic index at 210 mg/kg, po; type: organism-based; design: dose 210 mg/kg, route oral; settings: in vivo
Liver [12] = experiment: Gastrointestinal toxicity in rat liver assessed as ulcerogenic activity-related malonaldehyde level per 100 mg of tissue at 210 mg/kg, po (RVb = 3.26 nmol); type: organism-based; design: dose 210 mg/kg, route oral; settings: in vivo

Row | Compound | inhibition in vivo (Rattus norvegicus [1]) [%] | inhibition (INH) (Mus musculus) [%] | UI (Rattus norvegicus [2]) | Activity [3] [nmol] | Activity (Rattus norvegicus [4]) [U/ml] | Activity (Rattus norvegicus [5]) [U/ml] | Activity (Rattus norvegicus [6]) [U/ml] | Activity (Rattus norvegicus [7]) [g/dL] | Activity (Rattus norvegicus [8]) [g/dL] | Activity (Liver [9]) | inhibition in vivo at 70 mg/kg (Rattus norvegicus [10]) [%] | UI (Rattus norvegicus [11]) | Activity (Liver [12]) [nmol]
1 | c1ccc(-c2nn3c(-c4ccncc4)nnc3s2)cc1 | 66.4 | 56.06 | 0.666 | 5.78 | – | – | – | – | – | – | – | – | –
2 | Clc1ccccc1-c1nn2c(-c3ccncc3)nnc2s1 | 45.4 | 37.27 | 1.417 | 8.8 | – | – | – | – | – | – | – | – | –
3 | Clc1ccc(-c2nn3c(-c4ccncc4)nnc3s2)c(Cl)c1 | 69.3 | 61.81 | 0.75 | 6.71 | – | – | – | – | – | – | – | – | –
4 | Cc1ccccc1-c1nn2c(-c3ccncc3)nnc2s1 | 79.8 | 62.54 | 0.471 | 4.16 | – | – | – | – | – | – | – | – | –
5 | CC(=O)Oc1ccccc1-c1nn2c(-c3ccncc3)nnc2s1 | 39.8 | 25 | 2.25 | 8.82 | – | – | – | – | – | – | – | – | –
6 | c1ccc(Oc2nn3c(-c4ccncc4)nnc3s2)cc1 | 63.5 | 52.27 | 1.5 | 7.32 | – | – | – | – | – | – | – | – | –
7 | O=[N+]([O-])c1ccc(-c2nn3c(-c4ccncc4)nnc3s2)cc1 | 86.3 | 74.32 | 0.324 | 3.47 | 138.32 | 29.34 | 12.76 | 1.78 | 1.77 | Non-toxic | – | – | –
8 | Clc1ccccc1-c1nnc(-c2ccncc2)o1 | 37.7 | 29.54 | 2 | 8.11 | – | – | – | – | – | – | – | – | –
9 | Clc1ccc(-c2nnc(-c3ccncc3)o2)c(Cl)c1 | 84 | 70.37 | 0.386 | 3.29 | 136.24 | 28.67 | 13.79 | 1.76 | 1.72 | Non-toxic | – | – | –
10 | Cc1ccccc1-c1nnc(-c2ccncc2)o1 | 43.4 | 31.81 | 2.266 | 7.33 | – | – | – | – | – | – | – | – | –
11 | CC(=O)Oc1ccccc1-c1nnc(-c2ccncc2)o1 | 63.4 | 57.57 | 0.831 | 5.19 | – | – | – | – | – | – | – | – | –
12 | c1ccc(Oc2nnc(-c3ccncc3)o2)cc1 | 71.2 | 62.14 | 0.731 | 3.33 | – | – | – | – | – | – | – | – | –
13 | O=[N+]([O-])c1ccc(-c2nnc(-c3ccncc3)o2)cc1 | 54 | 44.05 | 1.762 | 6.85 | – | – | – | – | – | – | – | – | –
14 | c1ccc(-c2nnc(-c3ccncc3)o2)cc1 | 82.6 | 68.21 | 1.667 | – | – | – | – | – | – | – | – | – | –
15 | Sc1nnc(-c2ccncc2)o1 | 62.9 | 54.28 | 1.327 | 5.78 | – | – | – | – | – | – | – | – | –
16 | CC(C)Cc1ccc(C(C)C(=O)O)cc1 (stereo not drawn) [IBUPROFEN] | – | 73.52 | – | – | 140.14 | 34.26 | 11.67 | 1.74 | 1.71 | – | 82.7 | 2.315 | 7.51
17 | NNC(=O)c1ccncc1 [ISONIAZID] | 51.6 | 45.9 | 3.75 | – | 151.25 | 40.21 | 8.31 | 1.55 | 1.48 | – | – | – | –
